{
  "source": "patent US20090181420A1",
  "about": "“Inhibiting Smad signaling promotes neuron regeneration” (Children's Medical Center Corporation, priority 2006, published 2009)",
  "molecules": {"B1": {"name": "activin A: TGFβ family member produced in skin (protein, UniProt P08476 311-426, looked up)", "Inhibin beta A chain": "GLECDGKVNICCKKQFFVSFKDIGWNDWIIAPSGYHANYCEGECPSHIAGTSGSSLSFHSTVINHYRMRGHSPFANLKSCCVPTKLRPMSMLYYDDGQNIIKKDIQNMIVEECGCS"}, "B2": {"name": "Smad7: FLAG-tagged Smad7 overexpressed from an expression construct; competes with Smad2/3 for binding to activated ALK (protein, UniProt O15105 1-426, looked up)", "Mothers against …": "MFRTKRSALVRRLWRSRAPGGEDEEEGAGGGGGGGELRGEGATDSRAHGAGGGGPGRAGCCLGKAVRGAKGHHHPHPPAAGAGAAGGAEADLKALTHSVLKKLKERQLELLLQAVESRGGTRTACLLLPGRLDCRLGPGAPAGAQPAQPPSSYSLPLLLCKVFRWPDLRHSSEVKRLCCCESYGKINPELVCCNPHHLSRLCELESPPPPYSRYPMDFLKPTADCPDAVPSSAETGGTNYLAPGGLSDSQLLLEPGDRSHWCVVAYWEEKTRVGRLYCVQEPSLDIFYDLPQGNGFCLGQLNSDNKSQLVQKVRSKIGCGIQLTREVDGVWVYNRSSYPIFIKSATLDNPDSRTLLVHKVFPGFSIKAFDYEKAYSLQRPNDHEFMQQPWTGFTVQISFVKGWGQCYTRQFISSCPCWLEVIFNSR", "modifications": "FLAG tag"}},
  "key": {"[1]": {"system": "Smad2/3 signaling", "test": "Directed forepaw reaching (DFR) task after dorsal corticospinal tract transection", "format": "in vivo, Sprague Dawley rats", "details": "rats, sixth week after surgery; SB-505124 30 mg/kg tail vein or siRNA 10 μl intrathecal, days 1-7; vs lesion and vehicle groups", "excerpt": "Adult Sprague Dawley rats (300-400 gm) are trained and tested in a directed forepaw reaching (DFR) apparatus which measures grasping ability. The apparatus, which is described in detail by Nash et al., supra, is a box that consists of two compartments: a main compartment for housing the rats and a minor compartment for the food, separated by a Plexiglas divider. The minor compartment is subdivided into slots of equal size, each holding a pellet of food. Between the slots and the Plexiglas there is a gap. The apparatus is configured such that in order to retrieve a food pellet from a slot, a rat must extend a forelimb through a hole in the Plexiglas divider, and grasp the pellet and lift it over the gap and out of the slot. If the rat merely rakes the food in the slot towards the hole in the Plexiglas, the food will drop from the slot into the gap and fall to the floor of the minor compartment. The floor of the minor compartment can be configured to allow a rat to retrieve food that drops or it can be lowered to prevent the rat from reaching dropped food. Prior to inducing spinal injury, the rats are food restricted, receiving ˜3 gm food/100 gm body weight per day, before and throughout training and testing. Weight is monitored to ensure that rats are reduced to no less than 80% of their original body weight at any time. […]"}, "[2]": {"system": "adult DRG neurons (L4 and L5)", "test": "Axonal growth ability of injected adult DRG neurons cultured in vitro for 12 hrs", "format": "in vivo, rat", "details": "injected into adult DRG; 3 or 7 days post-injection, cultured 12 hrs; vs saline", "method": "(§1) Average axon length of the longest neurite from every individual neuron was measured and quantified as described before (Koprivica et al., 2005; Wang et al., 2002a; Wang et al., 2002b). Branching frequency was measured by dividing the number of branches from the longest neurite by the length of the neurite, as previously described (Smith and Skene, 1997). All measurements were made from at least 150 neurons per condition, from duplicate wells and from three independent experiments.\nWe next examined whether inhibiting this signaling pathway could enhance the intrinsic growth state of adult DRG neurons by pharmacological approaches. We injected SB505124 or the same volume of saline into the adult DRG (L4 and L5). 3 or 7 days post-injection, the axonal growth ability of injected DRG neurons were assayed by culturing DRG neurons in vitro for 12 hrs."}, "[3]": {"system": "Smad2/3 signaling", "test": "Count of BDT-labeled CST axons caudal to spinal cord lesion", "format": "in vivo, Sprague Dawley rats", "details": "rats, seven weeks and 3 d after lesioning; 1-19 mm caudal to lesion; vs lesioned control rats", "excerpt": "Rats are randomly assigned to control or experimental groups. Sham control rats undergo surgical procedure without lesioning, and with or without placement of an intrathecal catheter. Lesioned control rats receive no treatment, tail injection vehicle only treatment, intrathecal catheter only treatment, intrathecal catheter with vehicle only treatment, or intrathecal catheter and mismatch siRNA treatment. After anesthesia with isoflurane, the rats are placed on an operating board in such a way as to bend the cervical spinal cord for maximum exposure. A laminectomy is performed exposing the dorsum of the spinal cord between C2 and C4. The dorsal columns are identified bilaterally, and, in all rats except for those in the sham group, a suture needle is passed through the spinal cord, isolating the dorsal funiculus. The suture thread is gently lifted, and a pair of iridectomy scissors is used to bilaterally transect the dorsal funiculus, thereby transecting the dorsal corticospinal tract (CST). […]\nSeven weeks after injury, rats are prepared for injection of biotin dextran tetramethylrhodamine (BDT; Molecular Probes). […] After anesthesia with isoflurane (5%), rats are placed in a stereotaxic instrument, and a total of six stereotaxically determined holes (0.9 mm diameter) are drilled in the skull over the primary motor cortices associated with the forelimbs. […]"}, "[4]": {"system": "phospho-Smad2", "test": "Phospho-Smad2 in adult DRG after intraganglionic injection", "format": "in vivo, rat", "details": "2 μl of 5-10 mM injected into adult DRG (L4 and L5); pilot experiments"}, "[5]": {"system": "embryonic DRG neurons", "test": "Effect of activin A on axonal growth ability of embryonic DRG neurons (prior experiments)", "format": "cell-based"}, "[6]": {"system": "adult DRG neurons", "test": "Effect of activin A on axonal elongation of adult DRG neurons (prior experiments)", "format": "cell-based"}, "[7]": {"system": "cerebellar granule neurons (CGNs) from postnatal rats", "test": "Axonal growth of cerebellar granule neurons overexpressing Smad7", "format": "cell-based, rat", "details": "Smad7 expression, effect became stronger with time", "method": "(§2) For overexpression of Smad7 in DRGs, adult rat DRG neurons were co-transfected by electroporation with 2 μg pEGFP (Invitrogen) and 5 μg of an expression construct for FLAG-tagged Smad7 (Nakao et al., 1997) or control plasmid using the Rat Neuron Nucleofector Kit (Amaxa) following manufacturer's protocol. After brief purification, the neurons were plated at a density of 200-500 cells/mm2. For overexpression of Smad7 in cerebellar granule neurons (CGN), CGNs from P6 Sprague-Dawley rat pups were dissected, plated onto poly-D-lysine (20 μg/ml), and cultured in Basal Medium Eagle (Gibco) supplemented with 10% calf serum, 25 mM KCl, 2 mM L-glutamine, penicillin and streptomycin, at a density of 2.5×10^3 cells/mm2. CGNs were co-transfected with pEGFP and Smad7 or control plasmid at a 1 to 3 ratio using a modified calcium phosphate transfection method as described before (Konishi et al., 2004). […]\nas §1, with “All measurements were made from at least 150 neurons per condition, from duplicate wells and from three independent experiments.” left out"}, "[8]": {"system": "dissociated adult rat DRG neurons", "test": "Axonal growth of adult rat DRG neurons overexpressing Smad7", "format": "cell-based", "details": "Smad7 overexpression vs control GFP", "method": "as §2\nas §1, with “All measurements were made from at least 150 neurons per condition, from duplicate wells and from three independent experiments.” left out"}},
  "data": [
    {"molecule": "Cc1cccc(-c2[nH]c(C(C)(C)C)nc2-c2ccc3c(c2)OCO3)n1.Cl", "note": "[SB-505124, 2-(5-benzo[1,3]dioxol-5-yl-2-tert-butyl-3H-imidazol-4-yl)-6-methylpyridinehydrochloride]", "values": [
      {"measurement": "DFR task performance (functional recovery after spinal injury)", "setting": "[1]", "value": "Significantly better performance"},
      {"measurement": "axonal elongation of DRG neurons", "setting": "[2]", "value": "significantly increased axonal elongation"},
      {"measurement": "branching frequency of DRG neurons", "setting": "[2]", "value": "reduced branching frequency"},
      {"measurement": "number of BDT-labeled axons caudal to the lesion", "setting": "[3]", "value": "Significantly more labeled axons at each distance"},
      {"measurement": "phospho-Smad2 in the injected DRGs", "setting": "[4]", "value": "significant reduction of phospho-Smad2"}
    ]},
    {"molecule": "B1", "values": [
      {"measurement": "axonal growth ability", "setting": "[5]", "value": "triggers a decline in axonal growth ability"},
      {"measurement": "axonal elongation ability", "setting": "[6]", "value": "reduces axonal elongation ability"}
    ]},
    {"molecule": "B2", "values": [
      {"measurement": "axonal growth rate", "setting": "[7]", "value": "dramatically increase axonal growth rate"},
      {"measurement": "rate of axonal growth", "setting": "[8]", "value": "significantly enhanced the rate of axonal growth"}
    ]}
  ]
}
